Results: paper PMC10005547, “Development of Highly Efficient Estrogen Receptor β-Targeted Near-Infrared Fluorescence Probes Triggered by Endogenous Hydrogen Peroxide for Diagnostic Imaging of Prostate Cancer” (Molecules, 2023)

Experiments:
[1] = in vitro; set-up: CCK-8 cell viability assay, absorbance at 450 nm; conditions: human, mcf-10a cells; read-out: MCF-10A (IC50)
Description: Normal breast cells MCF-10A and prostate cancer cells DU-145 (purchased from ATCC, Rockville, MD, USA), breast cancer cells MCF-7 (purchased from the Type Culture Collection of the Chinese Academy of Sciences, Shanghai, China) were cultured in a phenol red DMEM [compound left out] medium supplemented with 10% fetal bovine serum. When the cell density reached 80% to 90%, the cells were digested, and the cell suspension was spread into 96-well cell culture plates with a phenol red-free DMEM medium containing 10% CS. After the cells were completely adherent, the original culture medium was discarded, and 100 μL of fresh compound solution prepared with the DMEM medium containing 10% CS were added to each well. The concentration gradient of the compound is: 1 × 10^−7.5 M, 1 × 10^−7 M, 1 × 10^−6.5 M, 1 × 10^−6 M, 1 × 10^−5.5 M, 1 × 10^−5 M, 1 × 10^−4.5 M, 1 × 10^−4 M. After 4 days of drug-treated culture, the culture plate was removed, the culture medium was aspirated, 100 μL CCK-8 working solution was added to each well and incubated for 1.5–2 h at 37 °C in a 5% CO2 incubator. The plate was read on the microplate reader, the wavelength at 450 nm was selected as the reference wavelength, the experimental results were analyzed, and the IC50 was calculated. […]

[2] = molecular target: T1, ERβ (Homo sapiens, UniProt Q92731); test: fluorescence polarization competition against a fluorescent ligand; type: binding
T1 construct: gene ESR2

[3] = system: DU-145; test: cells; set-up: CCK-8 cell viability assay, absorbance at 450 nm; conditions: Homo sapiens, DU-145, 96 h
Description: (§1) Normal breast cells MCF-10A and prostate cancer cells DU-145 (purchased from ATCC, Rockville, MD, USA), breast cancer cells MCF-7 (purchased from the Type Culture Collection of the Chinese Academy of Sciences, Shanghai, China) were cultured in a phenol red DMEM [compound left out] medium supplemented with 10% fetal bovine serum. When the cell density reached 80% to 90%, the cells were digested, and the cell suspension was spread into 96-well cell culture plates with a phenol red-free DMEM medium containing 10% CS. After the cells were completely adherent, the original culture medium was discarded, and 100 μL of fresh compound solution prepared with the DMEM medium containing 10% CS were added to each well. The concentration gradient of the compound is: 1 × 10^−7.5 M, 1 × 10^−7 M, 1 × 10^−6.5 M, 1 × 10^−6 M, 1 × 10^−5.5 M, 1 × 10^−5 M, 1 × 10^−4.5 M, 1 × 10^−4 M. After 4 days of drug-treated culture, the culture plate was removed, the culture medium was aspirated, 100 μL CCK-8 working solution was added to each well and incubated for 1.5–2 h at 37 °C in a 5% CO2 incubator. The plate was read on the microplate reader, the wavelength at 450 nm was selected as the reference wavelength, the experimental results were analyzed, and the IC50 was calculated. To investigate the toxicity of P1 and P2 on normal cells and their inhibitory activity on cancer cells before performing cellular imaging, we tested the effects of P1 and P2 on MCF-10A normal breast cells, MCF-7 breast cancer cells with high ERα expression, and DU-145 prostate cancer cells with high ERβ expression by using CCK-8 assays (Table S1). […] However, P1 was not toxic to any of these three cell lines.

[4] = system: MCF-7; test: cells; set-up: CCK-8 cell viability assay, absorbance at 450 nm; conditions: Homo sapiens, MCF7, 96 h
Description: as §1

[5] = molecular target: T2, ERα (Homo sapiens, UniProt P03372); test: fluorescence polarization competition against a fluorescent ligand; type: binding
T2 construct: gene ESR1
T2 sequence (P03372 1-595): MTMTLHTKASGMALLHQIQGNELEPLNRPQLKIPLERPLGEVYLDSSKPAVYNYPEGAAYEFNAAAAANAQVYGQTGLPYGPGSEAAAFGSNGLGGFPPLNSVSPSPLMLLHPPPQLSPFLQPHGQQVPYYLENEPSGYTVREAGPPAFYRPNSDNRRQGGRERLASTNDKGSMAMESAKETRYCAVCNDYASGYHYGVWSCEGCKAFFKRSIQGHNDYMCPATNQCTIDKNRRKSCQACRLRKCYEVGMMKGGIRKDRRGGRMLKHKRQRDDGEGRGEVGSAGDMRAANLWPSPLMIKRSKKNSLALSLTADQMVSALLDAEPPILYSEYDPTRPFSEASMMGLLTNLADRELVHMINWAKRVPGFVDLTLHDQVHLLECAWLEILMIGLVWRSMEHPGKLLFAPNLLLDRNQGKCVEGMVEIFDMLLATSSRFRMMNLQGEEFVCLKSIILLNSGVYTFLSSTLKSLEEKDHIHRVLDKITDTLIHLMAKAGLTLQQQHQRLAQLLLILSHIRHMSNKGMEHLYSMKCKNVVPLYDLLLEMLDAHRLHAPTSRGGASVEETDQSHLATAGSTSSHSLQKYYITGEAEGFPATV

T1 sequence (Q92731 whole entry): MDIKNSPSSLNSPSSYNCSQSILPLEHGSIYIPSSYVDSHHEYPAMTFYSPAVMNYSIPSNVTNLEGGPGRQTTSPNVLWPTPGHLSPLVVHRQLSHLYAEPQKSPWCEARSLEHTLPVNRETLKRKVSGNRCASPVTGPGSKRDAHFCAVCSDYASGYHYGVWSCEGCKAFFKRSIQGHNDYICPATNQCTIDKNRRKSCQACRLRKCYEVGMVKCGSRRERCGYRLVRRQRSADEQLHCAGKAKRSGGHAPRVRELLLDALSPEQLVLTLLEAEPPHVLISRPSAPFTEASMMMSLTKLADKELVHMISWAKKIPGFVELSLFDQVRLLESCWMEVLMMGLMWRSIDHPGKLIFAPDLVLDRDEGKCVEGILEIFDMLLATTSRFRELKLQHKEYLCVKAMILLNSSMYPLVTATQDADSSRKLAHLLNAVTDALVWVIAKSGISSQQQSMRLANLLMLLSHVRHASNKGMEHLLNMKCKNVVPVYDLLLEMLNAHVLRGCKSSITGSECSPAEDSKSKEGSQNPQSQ

Ki [2] [µM]	IC50 [3] [µM]	IC50 [4] [µM]	Ki [5] [µM]	SMILES	CC50 at 96 h [1] [µM]
1.21 ± 0.03	> 100	16.3 ± 4.42	8.73 ± 0.01	C=CS(=O)(=O)Oc1ccc2c(c1)C(=C(C#N)C#N)C=C(/C=C/c1ccc(B3OC(C)(C)C(C)(C)O3)cc1)O2 [P2, (E)-4-(Dicyanomethylene)-2-(4-(4,4,5,5-tetramethyl-1,3,2-dioxaborolan-2-yl)styryl)-4H-chromen-6-yl ethenesulfonate]	> 100
1.42 ± 0.02	> 100	> 100	4.36 ± 0.01	CC1(C)OB(c2ccc(/C=C/C3=CC(=C(C#N)C#N)c4cc(O)ccc4O3)cc2)OC1(C)C [P1, (E)-2-(6-Hydroxy-2-(4-(4,4,5,5-tetramethyl-1,3,2-dioxaborolan-2-yl)styryl)-4H-chromen-4-ylidene)malononitrile]	> 100
